# Laboratory results as given in publication PMC10178848, “Modulating fast skeletal muscle contraction protects skeletal muscle in animal models of Duchenne muscular dystrophy” (The Journal of Clinical Investigation, 2023).
# Read-outs that look alike come from different tables or passages of the source.
# Assays:
# mouse TA myofibrils = assay: Myofibril ATPase, mouse TA; format: biochemical; conditions: mixed IIa, IIx, IIb
# [1] = test system: mixed fast/slow mouse soleus muscle; assay: Ex vivo isometric force, mouse soleus; conditions: 31% type I, 60% type IIa/IIx
# Protocol: Isometric force was measured ex vivo in mouse EDL and soleus muscle. EDL muscle eccentric injury was based on published protocols ([30]), with degree of lengthening and stimulation modified to yield a uniform drop in mdx isometric and peak force over 10 contractions. After isolation, muscle was mounted via 5-0 suture to a combination servomotor/force transducer (300C-LR, Aurora) between 2 electrodes connected to a stimulator (701C, Aurora) in Ringers solution at 27°C with continuously infused CO2/O2 gas mixture. Experiments were recorded with custom MATLAB software via a National Instruments PCIe-6321 board and 2090A BNC connector. Muscles were preincubated for 60 minutes with DMSO (final 0.1%)/compound before 10 eccentric contractions, 1 minute apart, with 100 milliseconds of isometric stimulation at 100 Hz and active lengthening of 0.1 L0 at a rate of 2 L0/s. After lengthening, muscles were held at 1.1 L0 with stimulation for 100 milliseconds (Supplemental Figure 2A).
# mdx mice [2] = assay: Plasma CK activity in mice; format: in vivo, mouse
# Protocol: Plasma from mice and dogs were analyzed for CK activity using standard protocols (Pointe Scientific, Thermo Fisher Scientific).
# WT or mdx mice = assay: Rotarod endurance; format: in vivo, mouse; conditions: single doses up to 10 mg/kg, 4 hours after oral administration
# Protocol: (§1) Prior to in vivo assessments, mice were dosed PO after a 2-hour fast with 10 mL/Kg suspensions. Grip strength and rotarod assessments were performed masked, 4 hours after dosing using published protocols ([66], [67]). Grip strength was performed with a Columbus Instruments Rodent Force Meter. Forepaw strength represented the average of 5 trials with 30-second rest periods, normalized by BW. Rotarod endurance was performed with a Columbus Instruments RotaMax. Mice were placed on the device drum at 1 rpm, which accelerated 1 rpm every 3 seconds to 12 rpm and a maximal time of 500 seconds. This was repeated 3 times with a 3-minute rest and total time reported. Voluntary wheel running performance was assessed with a customized system. Timestamped RPMs were measured 24 hours per day by infrared sensors, and a custom software calculated distance. Whole-body EBD was visualized after intravenous administration ([35]). EBD in PBS at 10 mg/mL was sterile filtered, and 50 μL/10 g BW was injected via tail vein. After 24 hours, animals were sacrificed, skin was removed and fixed in 4% formalin for 24 hours, and photographed using a Leica/Lumix camera.
# WT and mdx mice = assay: Voluntary wheel running; format: in vivo, mouse; conditions: 50 ppm chow
# Protocol: as §1
# mdx mice [3] = assay: Evans blue dye muscle uptake; format: in vivo, mouse; conditions: three-week treatment, nonexercised
# Protocol: as §1
# ABL1-nonphosphorylated = biological target: T1, ABL1-nonphosphorylated (Homo sapiens, UniProt P00519); assay: KINOMEscan scanEDGE; format: binding; conditions: 20 uM
# T1 construct: purchased Eurofins DiscoverX (KINOMEscan; SAFETYscan E/IC50 ELECT)
# AURKA = biological target: T2, AURKA (Homo sapiens, UniProt O14965); assay: KINOMEscan scanEDGE; format: binding; conditions: 20 uM
# T2 construct: purchased Eurofins DiscoverX (KINOMEscan; SAFETYscan E/IC50 ELECT)
# T2 sequence (O14965 whole entry): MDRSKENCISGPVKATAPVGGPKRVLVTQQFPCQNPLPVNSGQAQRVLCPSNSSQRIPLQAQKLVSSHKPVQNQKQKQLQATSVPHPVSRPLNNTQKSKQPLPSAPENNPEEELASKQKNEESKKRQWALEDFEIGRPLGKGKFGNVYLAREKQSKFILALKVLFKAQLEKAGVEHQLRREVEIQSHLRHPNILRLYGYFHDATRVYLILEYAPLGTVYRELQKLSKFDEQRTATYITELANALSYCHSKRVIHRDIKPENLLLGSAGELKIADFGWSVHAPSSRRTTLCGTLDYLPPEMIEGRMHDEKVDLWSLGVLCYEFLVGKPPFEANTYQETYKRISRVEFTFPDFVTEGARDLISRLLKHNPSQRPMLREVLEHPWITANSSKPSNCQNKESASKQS
# BMPR2 = biological target: T3, BMPR2 (Homo sapiens, UniProt Q13873); assay: KINOMEscan scanEDGE; format: binding; conditions: 20 uM
# T3 construct: purchased Eurofins DiscoverX (KINOMEscan; SAFETYscan E/IC50 ELECT)
# T3 sequence (Q13873 27-1038): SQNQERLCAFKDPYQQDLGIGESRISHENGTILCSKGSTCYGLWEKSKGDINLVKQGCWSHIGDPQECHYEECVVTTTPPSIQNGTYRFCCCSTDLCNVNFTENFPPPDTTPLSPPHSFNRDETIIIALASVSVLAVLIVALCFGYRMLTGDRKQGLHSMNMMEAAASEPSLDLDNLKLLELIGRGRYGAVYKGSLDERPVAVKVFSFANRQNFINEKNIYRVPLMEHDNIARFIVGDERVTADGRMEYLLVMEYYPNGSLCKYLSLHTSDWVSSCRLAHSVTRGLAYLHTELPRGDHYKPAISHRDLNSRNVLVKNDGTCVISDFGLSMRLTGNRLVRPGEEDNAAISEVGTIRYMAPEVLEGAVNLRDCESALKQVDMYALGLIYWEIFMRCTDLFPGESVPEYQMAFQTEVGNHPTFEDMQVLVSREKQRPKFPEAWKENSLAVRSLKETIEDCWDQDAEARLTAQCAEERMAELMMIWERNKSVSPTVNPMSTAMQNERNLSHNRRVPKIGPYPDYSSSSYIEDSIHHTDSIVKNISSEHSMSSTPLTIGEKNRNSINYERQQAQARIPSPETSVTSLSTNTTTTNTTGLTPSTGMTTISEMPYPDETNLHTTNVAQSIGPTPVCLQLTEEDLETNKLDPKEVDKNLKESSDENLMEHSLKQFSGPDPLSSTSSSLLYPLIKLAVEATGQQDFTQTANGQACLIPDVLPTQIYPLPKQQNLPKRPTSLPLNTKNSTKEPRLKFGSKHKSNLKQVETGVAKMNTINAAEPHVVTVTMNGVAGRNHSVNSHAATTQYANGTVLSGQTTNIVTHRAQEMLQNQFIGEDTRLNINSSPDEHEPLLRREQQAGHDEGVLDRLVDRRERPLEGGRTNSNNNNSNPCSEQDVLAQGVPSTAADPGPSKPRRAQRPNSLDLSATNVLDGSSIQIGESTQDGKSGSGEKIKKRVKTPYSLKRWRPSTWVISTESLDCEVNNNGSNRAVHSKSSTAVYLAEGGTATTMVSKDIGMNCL
# FGFR3 = biological target: T4, FGFR3 (Homo sapiens, UniProt P22607); assay: KINOMEscan scanEDGE; format: binding; conditions: 20 uM
# T4 construct: purchased Eurofins DiscoverX (KINOMEscan; SAFETYscan E/IC50 ELECT)
# FLT3 = biological target: T5, FLT3 (Homo sapiens, UniProt P36888); assay: KINOMEscan scanEDGE; format: binding; conditions: 20 uM
# T5 construct: purchased Eurofins DiscoverX (KINOMEscan; SAFETYscan E/IC50 ELECT)
# [4] = biological target: T6, JAK3(JH1domain-catalytic) (Homo sapiens, UniProt P52333); assay: KINOMEscan scanEDGE; format: binding; conditions: 20 uM
# T6 construct: JAK3(JH1domain-catalytic); purchased Eurofins DiscoverX (KINOMEscan; SAFETYscan E/IC50 ELECT)
# MKNK2 = biological target: T7, MKNK2 (Homo sapiens, UniProt Q9HBH9); assay: KINOMEscan scanEDGE; format: binding; conditions: 20 uM
# T7 construct: purchased Eurofins DiscoverX (KINOMEscan; SAFETYscan E/IC50 ELECT)
# PIM2 = biological target: T8, PIM2 (Homo sapiens, UniProt Q9P1W9); assay: KINOMEscan scanEDGE; format: binding; conditions: 20 uM
# T8 construct: purchased Eurofins DiscoverX (KINOMEscan; SAFETYscan E/IC50 ELECT)
# PKAC-alpha = biological target: T9, PKAC-alpha (Homo sapiens, UniProt P17612); assay: KINOMEscan scanEDGE; format: binding; conditions: 20 uM
# T9 construct: purchased Eurofins DiscoverX (KINOMEscan; SAFETYscan E/IC50 ELECT)
# RET = biological target: T10, RET (Homo sapiens, UniProt P07949); assay: KINOMEscan scanEDGE; format: binding; conditions: 20 uM
# T10 construct: purchased Eurofins DiscoverX (KINOMEscan; SAFETYscan E/IC50 ELECT)
# T10 sequence (P07949 29-1114): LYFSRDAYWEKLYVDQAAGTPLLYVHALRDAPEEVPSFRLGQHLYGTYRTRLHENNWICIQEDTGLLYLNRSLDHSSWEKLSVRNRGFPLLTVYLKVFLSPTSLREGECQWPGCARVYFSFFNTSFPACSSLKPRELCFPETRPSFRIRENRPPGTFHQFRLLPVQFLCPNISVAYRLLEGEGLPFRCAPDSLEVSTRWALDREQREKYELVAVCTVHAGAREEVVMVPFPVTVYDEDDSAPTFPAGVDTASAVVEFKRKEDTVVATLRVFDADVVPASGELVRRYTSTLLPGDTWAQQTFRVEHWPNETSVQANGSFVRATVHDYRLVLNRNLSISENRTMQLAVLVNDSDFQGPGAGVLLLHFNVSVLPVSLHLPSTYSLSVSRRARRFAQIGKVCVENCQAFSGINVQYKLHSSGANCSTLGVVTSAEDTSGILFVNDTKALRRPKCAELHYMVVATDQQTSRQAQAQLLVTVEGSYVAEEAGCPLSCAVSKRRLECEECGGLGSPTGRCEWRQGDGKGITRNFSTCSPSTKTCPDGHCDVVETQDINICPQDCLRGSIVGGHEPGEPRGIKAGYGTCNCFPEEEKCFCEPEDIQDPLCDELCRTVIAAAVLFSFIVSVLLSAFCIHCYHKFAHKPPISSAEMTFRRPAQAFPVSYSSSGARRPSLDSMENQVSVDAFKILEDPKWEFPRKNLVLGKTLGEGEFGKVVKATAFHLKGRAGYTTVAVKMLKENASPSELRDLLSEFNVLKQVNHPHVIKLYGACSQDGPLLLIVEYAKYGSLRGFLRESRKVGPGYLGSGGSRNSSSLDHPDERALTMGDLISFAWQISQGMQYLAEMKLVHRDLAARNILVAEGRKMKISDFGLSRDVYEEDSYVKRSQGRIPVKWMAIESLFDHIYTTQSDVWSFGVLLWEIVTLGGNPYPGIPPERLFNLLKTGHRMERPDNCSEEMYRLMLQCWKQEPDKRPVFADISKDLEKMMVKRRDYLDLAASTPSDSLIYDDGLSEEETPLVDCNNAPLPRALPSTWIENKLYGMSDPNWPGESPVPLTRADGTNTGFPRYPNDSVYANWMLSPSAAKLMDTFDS
# RIOK2 = biological target: T11, RIOK2 (Homo sapiens, UniProt Q9BVS4); assay: KINOMEscan scanEDGE; format: binding; conditions: 20 uM
# T11 construct: purchased Eurofins DiscoverX (KINOMEscan; SAFETYscan E/IC50 ELECT)
# T11 sequence (Q9BVS4 whole entry): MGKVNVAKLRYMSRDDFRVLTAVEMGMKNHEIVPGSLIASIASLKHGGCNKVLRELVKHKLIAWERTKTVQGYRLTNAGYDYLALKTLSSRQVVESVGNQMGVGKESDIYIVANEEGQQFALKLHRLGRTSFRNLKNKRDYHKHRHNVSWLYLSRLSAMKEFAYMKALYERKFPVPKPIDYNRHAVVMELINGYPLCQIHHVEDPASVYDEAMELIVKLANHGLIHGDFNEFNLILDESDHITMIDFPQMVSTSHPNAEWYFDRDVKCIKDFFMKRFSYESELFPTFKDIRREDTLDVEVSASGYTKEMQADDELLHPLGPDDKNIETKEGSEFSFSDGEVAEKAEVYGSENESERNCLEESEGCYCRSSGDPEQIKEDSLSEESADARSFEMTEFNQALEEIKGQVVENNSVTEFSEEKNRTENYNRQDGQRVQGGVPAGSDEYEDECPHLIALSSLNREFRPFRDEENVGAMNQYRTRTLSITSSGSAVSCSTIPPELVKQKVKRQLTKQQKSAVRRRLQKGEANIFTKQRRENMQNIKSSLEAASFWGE
# [5] = biological target: T12, RSK2(Kin.Dom.1-N-terminal) (Homo sapiens, UniProt P51812); assay: KINOMEscan scanEDGE; format: binding; conditions: 20 uM
# T12 construct: RSK2(Kin.Dom.1-N-terminal); purchased Eurofins DiscoverX (KINOMEscan; SAFETYscan E/IC50 ELECT)
# TSSK1B = biological target: T13, TSSK1B (Homo sapiens, UniProt Q9BXA7); assay: KINOMEscan scanEDGE; format: binding; conditions: 20 uM
# T13 construct: purchased Eurofins DiscoverX (KINOMEscan; SAFETYscan E/IC50 ELECT)
# ULK2 = biological target: T14, ULK2 (Homo sapiens, UniProt Q8IYT8); assay: KINOMEscan scanEDGE; format: binding; conditions: 20 uM
# T14 construct: purchased Eurofins DiscoverX (KINOMEscan; SAFETYscan E/IC50 ELECT)
# CAV1.2 = biological target: T15, CAV1.2 (Homo sapiens, UniProt Q13936); assay: SAFETYscan Ion Channel; format: cell-based; design: dose or concentration left out as unconfirmed; conditions: read-out: Max Response (%) (Agonist)
# T15 construct: purchased Eurofins DiscoverX (KINOMEscan; SAFETYscan E/IC50 ELECT)
# Protocol: (§2) The specificity of EDG-5506 for fast skeletal myosin over other, unrelated proteins was confirmed using two off-target binding and activity screens. […] A second off-target panel (SAFETYscan E/IC50 ELECT, Eurofins DiscoverX) tested in vitro enzyme activity against 78 proteins, including GPCR, ion channel, kinases, nuclear hormone receptors, and transporters. In all assays, the IC50 of EDG-5506 was more than 10 μM (Supplemental Data File 1).
# HTR3A = biological target: T16, HTR3A (Homo sapiens, UniProt P46098); assay: SAFETYscan Ion Channel; format: cell-based; design: dose or concentration left out as unconfirmed
# T16 construct: purchased Eurofins DiscoverX (KINOMEscan; SAFETYscan E/IC50 ELECT)
# T16 sequence (P46098 24-478): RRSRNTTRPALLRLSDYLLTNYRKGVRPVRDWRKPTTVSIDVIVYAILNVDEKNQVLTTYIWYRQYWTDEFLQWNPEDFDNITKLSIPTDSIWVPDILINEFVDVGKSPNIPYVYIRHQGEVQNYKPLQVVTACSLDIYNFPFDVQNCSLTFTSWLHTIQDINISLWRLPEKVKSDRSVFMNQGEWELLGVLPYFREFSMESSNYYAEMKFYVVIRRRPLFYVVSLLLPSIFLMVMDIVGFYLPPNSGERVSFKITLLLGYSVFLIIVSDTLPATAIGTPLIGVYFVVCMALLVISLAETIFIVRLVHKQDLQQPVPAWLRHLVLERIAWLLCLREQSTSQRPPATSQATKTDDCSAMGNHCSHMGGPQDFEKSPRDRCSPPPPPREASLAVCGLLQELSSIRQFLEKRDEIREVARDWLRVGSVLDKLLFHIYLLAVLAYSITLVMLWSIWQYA
# Protocol: as §2
# NAV1.5 = biological target: T17, NAV1.5 (Homo sapiens, UniProt Q14524); assay: SAFETYscan Ion Channel; format: cell-based; design: dose or concentration left out as unconfirmed; conditions: read-out: Max Response (%) (Antagonist)
# T17 construct: purchased Eurofins DiscoverX (KINOMEscan; SAFETYscan E/IC50 ELECT)
# Protocol: as §2
# NMDAR (1A/2B) = biological target: T18, NMDAR (1A/2B) (Homo sapiens, UniProt Q05586+Q13224); assay: SAFETYscan Ion Channel; format: cell-based; design: dose or concentration left out as unconfirmed
# T18 construct: purchased Eurofins DiscoverX (KINOMEscan; SAFETYscan E/IC50 ELECT)
# T18 sequence (Q13224 27-1484, other chains not shown): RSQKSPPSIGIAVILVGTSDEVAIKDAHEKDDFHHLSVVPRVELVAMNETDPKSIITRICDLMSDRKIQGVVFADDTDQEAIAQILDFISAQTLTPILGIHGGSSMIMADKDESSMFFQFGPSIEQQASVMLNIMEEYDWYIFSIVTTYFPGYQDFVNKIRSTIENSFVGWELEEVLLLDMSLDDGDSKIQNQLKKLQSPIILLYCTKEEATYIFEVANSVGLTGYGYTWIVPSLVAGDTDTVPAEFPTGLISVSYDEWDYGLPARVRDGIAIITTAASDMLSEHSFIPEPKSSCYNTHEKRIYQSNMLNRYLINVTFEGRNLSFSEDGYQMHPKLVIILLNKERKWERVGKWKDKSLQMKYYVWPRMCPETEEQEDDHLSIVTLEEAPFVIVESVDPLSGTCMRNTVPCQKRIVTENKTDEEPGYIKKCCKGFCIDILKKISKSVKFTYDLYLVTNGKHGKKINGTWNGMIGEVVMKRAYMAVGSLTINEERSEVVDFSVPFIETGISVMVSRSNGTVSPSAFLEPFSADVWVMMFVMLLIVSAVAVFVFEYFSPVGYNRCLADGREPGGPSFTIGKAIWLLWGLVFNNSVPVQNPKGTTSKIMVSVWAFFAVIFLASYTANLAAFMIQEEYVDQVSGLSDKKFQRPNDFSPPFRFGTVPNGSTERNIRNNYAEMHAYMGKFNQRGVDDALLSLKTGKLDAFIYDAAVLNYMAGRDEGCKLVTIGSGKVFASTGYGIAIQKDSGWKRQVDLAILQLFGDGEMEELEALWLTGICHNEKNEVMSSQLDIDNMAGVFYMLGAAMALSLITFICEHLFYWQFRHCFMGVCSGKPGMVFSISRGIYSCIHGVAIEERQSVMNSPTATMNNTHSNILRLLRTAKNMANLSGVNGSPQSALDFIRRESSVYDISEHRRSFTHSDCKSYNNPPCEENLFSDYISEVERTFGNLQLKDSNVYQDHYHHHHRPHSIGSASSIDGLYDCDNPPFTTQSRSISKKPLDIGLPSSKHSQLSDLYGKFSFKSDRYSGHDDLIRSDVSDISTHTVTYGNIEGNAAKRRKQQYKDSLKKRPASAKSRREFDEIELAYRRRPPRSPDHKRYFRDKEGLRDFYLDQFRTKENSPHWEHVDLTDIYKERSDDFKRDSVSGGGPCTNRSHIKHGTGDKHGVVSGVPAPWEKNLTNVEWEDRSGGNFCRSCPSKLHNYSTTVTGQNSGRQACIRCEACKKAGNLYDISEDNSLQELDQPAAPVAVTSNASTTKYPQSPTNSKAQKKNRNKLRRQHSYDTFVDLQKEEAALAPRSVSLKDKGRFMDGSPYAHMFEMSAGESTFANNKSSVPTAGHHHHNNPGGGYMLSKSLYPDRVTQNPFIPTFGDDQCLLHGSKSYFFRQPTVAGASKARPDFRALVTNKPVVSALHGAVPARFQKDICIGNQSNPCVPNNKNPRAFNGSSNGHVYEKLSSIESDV
# Protocol: as §2
# hERG = biological target: T19, hERG (Homo sapiens, UniProt Q12809); assay: SAFETYscan Ion Channel; format: cell-based; design: dose or concentration left out as unconfirmed; conditions: read-out: Max Response (%) (Agonist)
# T19 construct: purchased Eurofins DiscoverX (KINOMEscan; SAFETYscan E/IC50 ELECT)
# Protocol: as §2
# [6] = read-out: Max Response (%) (Agonist)
# [7] = read-out: Max Response (%) (Antagonist)
compound,measurement,setting,value
O=c1ccc(-c2cnc(OCC(F)(F)F)nc2)nn1Cc1cncc(F)c1 [EDG-5506],IC50,mouse TA myofibrils,400 nM
same,ex vivo force inhibition,[1],partial force inhibition
same,plasma CK activity after in situ injury,mdx mice [2]; 1 hour after in situ injury,lowered plasma CK activity
same,postexercise plasma CK,mdx mice [2]; 1 hour after rotarod or grip strength tests,significantly lower
same,rotarod endurance,WT or mdx mice,no effect
same,wheel running,WT and mdx mice,no effect
same,Evans blue dye-positive fibers,mdx mice [3],reduced blue fibers close to the level seen in WT mice
same,"binding, % of control",ABL1-nonphosphorylated,96 % of control
same,"binding, % of control",AURKA,99 % of control
same,"binding, % of control",BMPR2,99 % of control
same,"binding, % of control",FGFR3,96 % of control
same,"binding, % of control",FLT3,89 % of control
same,"binding, % of control",[4],100 % of control
same,"binding, % of control",MKNK2,92 % of control
same,"binding, % of control",PIM2,100 % of control
same,"binding, % of control",PKAC-alpha,100 % of control
same,"binding, % of control",RET,52 % of control
same,"binding, % of control",RIOK2,80 % of control
same,"binding, % of control",[5],90 % of control
same,"binding, % of control",TSSK1B,97 % of control
same,"binding, % of control",ULK2,82 % of control
same,Emax,CAV1.2,26.5%
same,Emax,HTR3A; [6],0.36%
same,Emax,HTR3A; [7],8.58%
same,Emax,NAV1.5,2.32%
same,Emax,NMDAR (1A/2B); [6],0%
same,Emax,NMDAR (1A/2B); [7],0%
same,Emax,hERG,13.1%
